Measurements reported in US8629273B2, “Diazinylpyrazolyl compounds” (Bayer Intellectual Property GmbH, priority 2009, dated 2014).

Legend:
Boophilus microplus = Boophilus microplus test (BOOPMI injection); assay type: in vivo; details: 20 μg/animal, injected into the abdomen, after 7 days
Procedure: Solvent: Dimethyl Sulphoxide To produce a suitable preparation of active compound, 10 mg of active compound are mixed with 0.5 ml of solvent, and the concentrate is diluted with water to the desired concentration. The active compound solution is injected into the abdomen (Boophilus microplus) and the animals are transferred into dishes and stored in a climatized room. The activity is monitored for deposition of fertile eggs. After 7 days, the activity in % is determined. 100% means that none of the ticks has laid fertile eggs.

Ctenocephalides felis = Ctenocephalides felis oral (CTECFE); assay type: in vivo; details: 100 ppm in citrated cattle blood, after 2 days
Procedure: Solvent: 1 part by weight of dimethyl sulphoxide To produce a suitable preparation of active compound, 10 mg of active compound are mixed with 0.5 ml of dimethyl sulphoxide. One part of the concentrate is diluted with citrated cattle blood, and the desired concentration is prepared. 20 unfed adult fleas (Ctenocephalides felis) are placed into a chamber whose top and bottom ends are closed with gauze. A metal cylinder whose bottom end is closed with parafilm is placed onto the chamber. The cylinder contains the blood/active compound preparation, which can be taken up by the fleas through the parafilm membrane. After 2 days, the kill in % is determined. 100% means that all fleas have been killed; 0% means that none of the fleas have been killed.

Lucilia cuprina larvae = assay: Lucilia cuprina test (LUCICU); assay type: in vivo; details: 100 ppm, treated horse meat, after 2 days
Procedure: Solvent: Dimethyl Sulphoxide To produce a suitable preparation of active compound, 10 mg of active compound are mixed with 0.5 ml of dimethyl sulphoxide, and the concentrate is diluted with water to the desired concentration. Containers containing horse meat treated with the active compound preparation of the desired concentration are populated with Lucilia cuprina larvae. After 2 days, the kill in % is determined. 100% means that all larvae have been killed; 0% means that none of the larvae have been killed.

[1] = tested on: larvae of the mustard beetle (Phaedon cochleariae); assay: Phaedon test (PHAECO spray treatment); assay type: in vivo; details: after 7 days
Procedure: (§1) Solvents: 78.0 parts by weight of acetone • • 1.5 parts by weight of dimethyl formamide Emulsifier: 0.5 part by weight of alkylaryl polyglycol ether To produce a suitable preparation of active compound, 1 part by weight of active compound is mixed with the stated amounts of solvent and emulsifier, and the concentrate is diluted with emulsifier-containing water to the desired concentration. Discs of Chinese cabbage leaves (Brassica pekinensis) are sprayed with an active compound preparation of the desired concentration and, after drying, populated with larvae of the mustard beetle (Phaedon cochleariae). After 7 days, the activity in % is determined. 100% means that all beetle larvae have been killed; 0% means that none of the beetle larvae have been killed. The test was carried out and evaluated as described in Example B.4.

[2] = logP by HPLC on reversed-phase columns (C 18), EU Guideline 79/831 Annex V.A8; assay type: physicochemical; details: for chromatographic logP: reversed-phase HPLC column (C 18)
[3] = tested on: caterpillars of the army worm (Spodoptera frugiperda); assay: Spodoptera frugiperda test (SPODFR spray treatment); assay type: in vivo; details: after 7 days
Procedure: as §1, with “maize” for “Chinese cabbage”, “(Zea mays)” for “(Brassica pekinensis)”, “caterpillars” for “larvae”, “army worm (Spodoptera frugiperda).” for “mustard beetle (Phaedon cochleariae).”, “caterpillars” for “beetle larvae”, “B.5.” for “B.4.”

adult Musca domestica = assay: Musca domestica test (MUSCDO); assay type: in vivo; details: treated sponge
Procedure: Solvent: Dimethyl sulphoxide To prepare a suitable preparation of active compound, 10 mg of active component are mixed with 0.5 ml of dimethyl sulphoxide, and the concentrate is diluted with water to the desired concentration. Vessels containing a sponge which had been treated with the active compound preparation of the desired concentration are populated with adult Musca domestica. After the desired period of time, the kill in % is determined. 100% means that all flies have been killed; 0% means that none of the flies have been killed.

[4] = * LC-MS in the acidic range, pH 2.7, 0.1% aqueous formic acid and acetonitrile
[5] = ** LC-MS in the neutral range, pH 7.8, 0.001 molar aqueous ammonium bicarbonate and acetonitrile
[6] = pH 7.8, ** LC-MS in the neutral range, pH 7.8, 0.001 molar aqueous ammonium bicarbonate and acetonitrile

Row | logP [2, 4] | logP [2, 5] | Structure (SMILES) | activity (no deposition of fertile eggs) (Boophilus microplus) [%] | kill (Ctenocephalides felis) [%] | kill (Lucilia cuprina larvae) [%] | activity (beetle larvae killed) ([1]; 100 g/ha) [%] | further results
1 | 3.89* | 3.84**; | CN(C)C=Nc1c(-c2cc(Cl)cc(C(F)(F)F)c2)c(C(F)(F)F)nn1-c1ncccn1 [Example 1-2] | 95 | 100 | 100 | 100 | –
2 | 3.37* | – | CN(C)C=Nc1c(-c2ccc(Cl)c(Cl)c2)c(C(F)(F)F)nn1-c1ncccn1 [Example 1-3] | 100 | 100 | 100 | 100 | –
3 | 2.8* | – | CN(C)C=Nc1c(-c2ccc(Cl)cc2)c(C(F)(F)Cl)nn1-c1ncccn1 [Example 1-4] | – | – | – | 100 | –
4 | 3.58* | – | Cc1cnc(-n2nc(C(F)(F)F)c(-c3ccc(Cl)c(Cl)c3)c2N=CN(C)C)nc1 [Example 1-6] | – | – | – | – | –
5 | 1.09* | – | Cc1nn(-c2ncccn2)c(N=CN(C)C)c1-c1ccc(Cl)cc1 [Example 1-7] | – | – | – | 100 | –
6 | 2.65* | – | CN(C)C=Nc1c(-c2cccc(Cl)c2)c(C(F)(F)F)nn1-c1ncccn1 [Example 1-8] | – | – | – | 100 | –
7 | – | – | CN(C)/C=N/c1c(-c2cc(Cl)cc(Br)c2)c(C(F)(F)F)nn1-c1ncccn1 [Example 1-9, N′-[4-(3-bromo-5-chlorophenyl)-1-(pyrimidin-2-yl)-3-(trifluoromethyl)-1H-pyrazol-5-yl]-N,N-dimethylimidoformamide] | 100 | 100 | 100 | 100 | activity (caterpillars killed) ([3]; 100 g/ha): 100%; chromatographic logP ([2]; pH 2.7, * LC-MS in the acidic range, pH 2.7, 0.1% aqueous formic acid and acetonitrile): 3.71
8 | – | – | CC(C)O/C=N/c1c(-c2cc(Cl)cc(C(F)(F)F)c2)c(C(F)(F)F)nn1-c1ncccn1 [Example 1-13, isopropyl {4-[3-chloro-5-(trifluoromethyl)phenyl]-1-(pyrimidin-2-yl)-3-(trifluoromethyl)-1H-pyrazol-5-yl}imidoformate] | 100 | 95 | 100 | 100 | activity (caterpillars killed) ([3]; 100 g/ha): 100%; kill (adult Musca domestica; 20 ppm): 100%; chromatographic logP [2, 6]: 4.88
9 | – | 5.01** | CCOC(C)=Nc1c(-c2cc(Cl)cc(C(F)(F)F)c2)c(C(F)(F)F)nn1-c1ncccn1 [Example 1-14] | 80 | 90 | 100 | 100 | kill (adult Musca domestica; 100 ppm): 80%
10 | – | 5.53** | FC(F)(F)c1cc(Cl)cc(-c2c(C(F)(F)F)nn(-c3ncccn3)c2N=Cc2ccc(Cl)cc2)c1 [Example 1-16] | 100 | – | – | 100 | activity (beetle larvae killed) ([1]; 20 g/ha): 100%
11 | – | 4.86** | FC(F)C(F)(F)c1nn(-c2ncccn2)c(N=Cc2ccccc2)c1-c1cc(Cl)cc(C(F)(F)F)c1 [Example 1-19] | 100 | 100 | 100 | 100 | activity (caterpillars killed) ([3]; 100 g/ha): 100%; kill (adult Musca domestica; 100 ppm): 100%
12 | – | 5.37** | FC(F)C(F)(F)c1nn(-c2ncccn2)c(N=Cc2ccc(Cl)cc2)c1-c1cc(Cl)cc(C(F)(F)F)c1 [Example 1-20] | 100 | 95 | 100 | 100 | activity (caterpillars killed) ([3]; 100 g/ha): 100%; kill (adult Musca domestica; 100 ppm): 100%
13 | – | 5.64** | FC(F)(F)c1cc(Cl)cc(-c2c(C(F)(F)F)nn(-c3ncccn3)c2N=Cc2ccccc2Br)c1 [Example 1-31] | 100 | 90 | 100 | 100 | kill (adult Musca domestica; 20 ppm): 90%
14 | – | 4.11** | FC(F)(F)c1nn(-c2ncccn2)c(N=Cc2ccccc2)c1-c1cc(Br)c2c(c1)CCO2 [Example 1-32] | 100 | 100 | 100 | 100 | –
15 | – | – | FC(F)(F)c1cc(Cl)cc(-c2c(C(F)(F)F)nn(-c3ncccn3)c2N=Cc2cccc(Br)c2)c1 [Example 1-39] | 100 | 80 | 100 | 100 | kill (adult Musca domestica; 100 ppm): 100%
16 | 3.71 | – | COC=Nc1c(-c2ccc(Cl)c(C(F)(F)F)c2)c(C(F)(F)F)nn1-c1ncccn1 [Example 1-91] | – | – | – | – | –
17 | 3.47* | – | CN(C)C=Nc1c(-c2ccc(Cl)cc2)c(C(F)(F)F)nn1-c1ncc(Cl)cn1 [Example 1-108] | – | – | – | – | –
18 | 4.52* | – | COc1nccnc1-n1nc(C(F)(F)F)c(-c2cc(Cl)cc(C(F)(F)F)c2)c1N=CN(C)C [Example 2-1] | – | 80 | – | – | –
19 | 4.86* | – | CCOc1nccnc1-n1nc(C(F)(F)F)c(-c2cc(Cl)cc(C(F)(F)F)c2)c1N=CN(C)C [Example 2-2] | – | – | – | – | –
20 | 5.17* | – | CC(C)Oc1nccnc1-n1nc(C(F)(F)F)c(-c2cc(Cl)cc(C(F)(F)F)c2)c1N=CN(C)C [Example 2-3] | – | – | – | – | –
21 | 4.32* | – | CN(C)C=Nc1c(-c2cc(Cl)cc(C(F)(F)F)c2)c(C(F)(F)F)nn1-c1cnccn1 [Example 2-4] | – | – | – | – | –
22 | – | 4.5** | COc1ccc(C=Nc2c(-c3cc(Cl)c4c(c3)OCO4)c(C(F)(F)F)nn2-c2nccnc2OC)cc1 [Example 2-5] | 100 | 100 | 100 | – | –
23 | – | 5.56** | COc1nccnc1-n1nc(C(F)(F)F)c(-c2cc(Cl)cc(C(F)(F)F)c2)c1N=Cc1ccccc1 [Example 2-9] | 100 | 90 | 100 | 100 | kill (adult Musca domestica; 20 ppm): 100%
24 | – | 5.29** | COc1ccc(C=Nc2c(-c3cc(Cl)cc(C(F)(F)F)c3)c(C(F)(F)C(F)F)nn2-c2nccnc2OC)cc1 [Example 2-10] | – | – | – | – | –
25 | – | 4.41** | COc1ccc(C=Nc2c(-c3cc(Cl)c4c(c3)OCO4)c(C(F)(F)C(F)F)nn2-c2nccnc2OC)cc1 [Example 2-12] | – | – | – | 100 | activity (caterpillars killed) ([3]; 100 g/ha): 100%
26 | – | – | COc1nccnc1-n1nc(C(F)(F)F)c(-c2cc(Cl)c(Cl)c(Cl)c2)c1/N=C/c1ccccc1 [Example 2-15, 1-(3-methoxypyrazin-2-yl)-N-phenylmethylene-4-(3,4,5-trichlorophenyl)-3-(trifluoromethyl)-1H-pyrazol-5-amine] | 100 | 90 | 100 | – | chromatographic logP [2, 6]: 6.03
27 | – | – | FC(F)(F)c1cc(Cl)cc(-c2c(C(F)(F)F)nn(-c3ncccn3)c2NCc2ccccc2)c1 [compound (XX), reference compound] | – | – | – | – | activity (beetle larvae killed) ([1]; 4 g/ha): 0%; activity (caterpillars killed) ([3]; 20 g/ha): 0%
28 | – | – | FC(F)(F)c1cc(Cl)cc(-c2c(C(F)(F)F)nn(-c3ncccn3)c2NCc2ccc(Cl)cc2)c1 [compound (XXIII), reference compound] | – | – | – | – | activity (beetle larvae killed) ([1]; 20 g/ha): no activity

Row | Structure (SMILES) | logP [2, 4] | logP [2, 5] | activity (no deposition of fertile eggs) (Boophilus microplus) [%] | kill (Ctenocephalides felis) [%] | kill (Lucilia cuprina larvae) [%] | activity (beetle larvae killed) ([1]; 100 g/ha) [%] | further results
29 | COc1ccc(-c2c(C(F)(F)F)nn(-c3ncccn3)c2N=CN(C)C)cc1 [Example 1-5] | 1.87* | – | 100 | – | – | – | –
